Source: patent US12357711B2, “PSMA binding dual mode radiotracer and therapeutic” (Technische Universität München, priority 2019, dated 2025)

Tested on: SCID mice
Test: Preclinical dosimetry from biodistribution in mice, extrapolated to 70-kg Standard Adult (OLINDA/EXM 1.0)
Format: in vivo
Conditions: 1.0 h bladder voiding interval
Method: 3-5 mice were injected per timepoint with a mean 25.6±3.6 MBq of 18F-rhPSMA-7 and 28.5±4.8 MBq of 18F-rhPSMA-7.3, respectively. Mice, severe combined immunodeficiency (SCID) were used for the experiments.
Mice were sacrificed at the following timepoints: • ^18F-rhPSMA-7: 10, 20, 40, 60, 120 and 180 minutes after administration. • ^18F-rhPSMA-7.3: 10, 60, 120, 180 and 300 minutes after administration.
Urine, blood, heart, lung, spleen, pancreas, liver, stomach (emptied), small intestine (emptied), large intestine (emptied), kidneys, bladder, testis, fat, muscle (partial, femoral), femur, tail and brain. Urine was collected with a pipette in the CO2 gas chamber. In case of missing urination in the chamber the bladder was aspirated with an insulin syringe. Blood was withdrawn instantly after sacrifice with an insulin syringe from the heart. All other tissues and organs were dissected and transferred directly in plastic containers.
The counting rates of measurement samples were automatically corrected for decay. The radioactivity distribution ratios (unit: percentage of the injected dose (% ID) in the measurement samples were determined using the equation below. The sum of the counting rates from all measurement samples obtained from one mouse was designated as the counting rate for administrated radioactivity.
The radioactivity distribution ratio per unit weight of the measurement sample (unit: % ID/g) excluding urine and feces samples was determined by using the equation below. The weight of the measurement sample was determined by subtraction of the empty measurement container from the container including the sample.
For consistency of statistical calculations for each radiotracer the same number of time-points for ^18F-rhPSMA-7 and ^18F-rhPSMA-7.3 was used. Therefore, for ^18F-rhPSMA-7 the 10 min and 20 min time points were combined creating a 15 min endpoint.
The time-integral of activity for the accumulation in the significant source organs (AUCs) were generated both with numerical integration and physical decay according to J Juan et al., Journal of Pharmaceutical Sciences, 1993, 82:762-763.
In brief, to calculate a human dosimetry from the biodistribution in the mice, an extrapolation was necessary to account for the differences between the animals and humans. Normal-organ radiation doses were estimated for the 70-kg Standard Adult anatomic model using time-depending organ activity concentrations (in percent of the injected dose per gram, % ID/g) and total-body activities measured in the biodistribution studies in mice.
Tissue activity concentrations in mice were converted to tissue fractional activities in the 70-kg Standard Adult using the relative fractional organ masses in the Standard Adult and the “standard” 25-gramm mouse. Time-dependent total-body activity was fit to an exponential function and the difference between the injected activity and the total-body activity was assumed to be excreted to the urine because activity concentrations in the liver and GI tracer were low at all time points studied.
Organ residence time was calculated by numerical integration using the trapezoidal rule and the rest-of-body ^18F residence times was calculated as the difference between the total-body residence time and the sum of the organ and urine residence times. The bladder contents residence time was estimated using the dynamic voiding model in the OLINDA/EXM 1.0 dosimetry software. Finally, the Standard Adult mean organ dose equivalents (in mSv/MBq) and effective dose (also in mSv/MBq) were then calculated using OLIN DA/EXM 1.0.
Final calculation of radiation absorbed dose and dosimetry from biodistribution in mice: The tissues or organs in which a significant accumulation of radioactivity occurs (i.e., source organ) were kidney, spleen, lung, liver and heart. With respect to activity accumulation and clearance, a rapid clearance from blood and clearance to urine but relatively slow build-up in kidney was found.

CC(C)(C)[Si](F)(c1ccc(C(=O)NC[C@@H](NC(=O)CC[C@@H](C(=O)O)N2CCN(CC(=O)[O-])CCN(CC(=O)[O-])CCN(CC(=O)[O-])CC2)C(=O)N[C@H](CCCCNC(=O)CCC(=O)NCCC[C@@H](NC(=O)CC[C@H](NC(=O)N[C@@H](CCC(=O)O)C(=O)O)C(=O)O)C(=O)O)C(=O)O)cc1)C(C)(C)C.[Ga+3] [rhPSMA7.3, [^19F][^natGa]D-Dap-S-DOTAGA-rhPSMA7]
Adrenals ED Cont.: 5.46E−05 mSv/MBq
Adrenals EDE Cont.: 0.00E000 mSv/MBq
Adrenals dose Alpha: 0.00E000 mSv/MBq
Adrenals dose Beta: 3.12E−03 mSv/MBq
Adrenals dose Photon: 7.79E−03 mSv/MBq
Adrenals dose Total: 1.09E−02 mSv/MBq
Brain ED Cont.: 3.59E−05 mSv/MBq
Brain EDE Cont.: 0.00E000 mSv/MBq
Brain dose Alpha: 0.00E000 mSv/MBq
Brain dose Beta: 3.12E−03 mSv/MBq
Brain dose Photon: 4.06E−03 mSv/MBq
Brain dose Total: 7.18E−03 mSv/MBq
Breasts ED Cont.: 3.32E−04 mSv/MBq
Breasts EDE Cont.: 9.97E−04 mSv/MBq
Breasts dose Alpha: 0.00E000 mSv/MBq
Breasts dose Beta: 3.12E−03 mSv/MBq
Breasts dose Photon: 3.53E−03 mSv/MBq
Breasts dose Total: 6.65E−03 mSv/MBq
Gallbladder Wall ED Cont.: 0.00E000 mSv/MBq
Gallbladder Wall EDE Cont.: 0.00E000 mSv/MBq
Gallbladder Wall dose Alpha: 0.00E000 mSv/MBq
Gallbladder Wall dose Beta: 3.12E−03 mSv/MBq
Gallbladder Wall dose Photon: 7.11E−03 mSv/MBq
Gallbladder Wall dose Total: 1.02E−02 mSv/MBq
Heart Wall ED Cont.: 0.00E000 mSv/MBq
Heart Wall EDE Cont.: 0.00E000 mSv/MBq
Heart Wall dose Alpha: 0.00E000 mSv/MBq
Heart Wall dose Beta: 1.32E−03 mSv/MBq
Heart Wall dose Photon: 5.36E−03 mSv/MBq
Heart Wall dose Total: 6.68E−03 mSv/MBq
Kidneys ED Cont.: 3.58E−04 mSv/MBq
Kidneys EDE Cont.: 4.29E−03 mSv/MBq
Kidneys dose Alpha: 0.00E000 mSv/MBq
Kidneys dose Beta: 5.11E−02 mSv/MBq
Kidneys dose Photon: 2.04E−02 mSv/MBq
Kidneys dose Total: 7.16E−02 mSv/MBq
LLI Wall ED Cont.: 1.39E−03 mSv/MBq
LLI Wall EDE Cont.: 6.94E−04 mSv/MBq
LLI Wall dose Alpha: 0.00E000 mSv/MBq
LLI Wall dose Beta: 3.12E−03 mSv/MBq
LLI Wall dose Photon: 8.45E−03 mSv/MBq
LLI Wall dose Total: 1.16E−02 mSv/MBq
Liver ED Cont.: 2.92E−04 mSv/MBq
Liver EDE Cont.: 0.00E000 mSv/MBq
Liver dose Alpha: 0.00E000 mSv/MBq
Liver dose Beta: 9.70E−04 mSv/MBq
Liver dose Photon: 4.87E−03 mSv/MBq
Liver dose Total: 5.84E−03 mSv/MBq
Lungs ED Cont.: 7.90E−04 mSv/MBq
Lungs EDE Cont.: 7.90E−04 mSv/MBq
Lungs dose Alpha: 0.00E000 mSv/MBq
Lungs dose Beta: 1.95E−03 mSv/MBq
Lungs dose Photon: 4.63E−03 mSv/MBq
Lungs dose Total: 6.58E−03 mSv/MBq
Muscle ED Cont.: 4.30E−05 mSv/MBq
Muscle EDE Cont.: 0.00E000 mSv/MBq
Muscle dose Alpha: 0.00E000 mSv/MBq
Muscle dose Beta: 3.12E−03 mSv/MBq
Muscle dose Photon: 5.47E−03 mSv/MBq
Muscle dose Total: 8.59E−03 mSv/MBq
Osteogenic Cells ED Cont.: 1.28E−04 mSv/MBq
Osteogenic Cells EDE Cont.: 3.84E−04 mSv/MBq
Osteogenic Cells dose Alpha: 0.00E000 mSv/MBq
Osteogenic Cells dose Beta: 6.70E−03 mSv/MBq
Osteogenic Cells dose Photon: 6.11E−03 mSv/MBq
Osteogenic Cells dose Total: 1.28E−02 mSv/MBq
Ovaries ED Cont.: 2.35E−03 mSv/MBq
Ovaries EDE Cont.: 2.93E−03 mSv/MBq
Ovaries dose Alpha: 0.00E000 mSv/MBq
Ovaries dose Beta: 3.12E−03 mSv/MBq
Ovaries dose Photon: 8.61E−03 mSv/MBq
Ovaries dose Total: 1.17E−02 mSv/MBq
Pancreas ED Cont.: 5.62E−05 mSv/MBq
Pancreas EDE Cont.: 0.00E000 mSv/MBq
Pancreas dose Alpha: 0.00E000 mSv/MBq
Pancreas dose Beta: 3.12E−03 mSv/MBq
Pancreas dose Photon: 8.12E−03 mSv/MBq
Pancreas dose Total: 1.12E−02 mSv/MBq
Red Marrow ED Cont.: 9.97E−04 mSv/MBq
Red Marrow EDE Cont.: 9.97E−04 mSv/MBq
Red Marrow dose Alpha: 0.00E000 mSv/MBq
Red Marrow dose Beta: 2.22E−03 mSv/MBq
Red Marrow dose Photon: 6.09E−03 mSv/MBq
Red Marrow dose Total: 8.31E−03 mSv/MBq
Skin ED Cont.: 6.57E−05 mSv/MBq
Skin EDE Cont.: 0.00E000 mSv/MBq
Skin dose Alpha: 0.00E000 mSv/MBq
Skin dose Beta: 3.12E−03 mSv/MBq
Skin dose Photon: 3.45E−03 mSv/MBq
Skin dose Total: 6.57E−03 mSv/MBq
Small Intestine ED Cont.: 5.45E−05 mSv/MBq
Small Intestine EDE Cont.: 0.00E000 mSv/MBq
Small Intestine dose Alpha: 0.00E000 mSv/MBq
Small Intestine dose Beta: 3.12E−03 mSv/MBq
Small Intestine dose Photon: 7.78E−03 mSv/MBq
Small Intestine dose Total: 1.09E−02 mSv/MBq
Spleen ED Cont.: 1.33E−04 mSv/MBq
Spleen EDE Cont.: 1.59E−03 mSv/MBq
Spleen dose Alpha: 0.00E000 mSv/MBq
Spleen dose Beta: 1.52E−02 mSv/MBq
Spleen dose Photon: 1.14E−02 mSv/MBq
Spleen dose Total: 2.66E−02 mSv/MBq
Stomach Wall ED Cont.: 1.19E−03 mSv/MBq
Stomach Wall EDE Cont.: 0.00E000 mSv/MBq
Stomach Wall dose Alpha: 0.00E000 mSv/MBq
Stomach Wall dose Beta: 3.12E−03 mSv/MBq
Stomach Wall dose Photon: 6.80E−03 mSv/MBq
Stomach Wall dose Total: 9.92E−03 mSv/MBq
Testes ED Cont.: 0.00E000 mSv/MBq
Testes EDE Cont.: 0.00E000 mSv/MBq
Testes dose Alpha: 0.00E000 mSv/MBq
Testes dose Beta: 3.12E−03 mSv/MBq
Testes dose Photon: 6.08E−03 mSv/MBq
Testes dose Total: 9.20E−03 mSv/MBq
Thymus ED Cont.: 4.09E−05 mSv/MBq
Thymus EDE Cont.: 0.00E000 mSv/MBq
Thymus dose Alpha: 0.00E000 mSv/MBq
Thymus dose Beta: 3.12E−03 mSv/MBq
Thymus dose Photon: 5.06E−03 mSv/MBq
Thymus dose Total: 8.18E−03 mSv/MBq
Thyroid ED Cont.: 4.13E−04 mSv/MBq
Thyroid EDE Cont.: 2.48E−04 mSv/MBq
Thyroid dose Alpha: 0.00E000 mSv/MBq
Thyroid dose Beta: 3.12E−03 mSv/MBq
Thyroid dose Photon: 5.15E−03 mSv/MBq
Thyroid dose Total: 8.27E−03 mSv/MBq
Total Body ED Cont.: 0.00E000 mSv/MBq
Total Body EDE Cont.: 0.00E000 mSv/MBq
Total Body dose Alpha: 0.00E000 mSv/MBq
Total Body dose Beta: 3.45E−03 mSv/MBq
Total Body dose Photon: 5.42E−03 mSv/MBq
Total Body dose Total: 8.87E−03 mSv/MBq
ULI Wall ED Cont.: 5.23E−05 mSv/MBq
ULI Wall EDE Cont.: 0.00E000 mSv/MBq
ULI Wall dose Alpha: 0.00E000 mSv/MBq
ULI Wall dose Beta: 3.12E−03 mSv/MBq
ULI Wall dose Photon: 7.33E−03 mSv/MBq
ULI Wall dose Total: 1.05E−02 mSv/MBq
Urinary Bladder Wall ED Cont.: 3.92E−03 mSv/MBq
Urinary Bladder Wall EDE Cont.: 4.70E−03 mSv/MBq
Urinary Bladder Wall dose Alpha: 0.00E000 mSv/MBq
Urinary Bladder Wall dose Beta: 5.18E−02 mSv/MBq
Urinary Bladder Wall dose Photon: 2.66E−02 mSv/MBq
Urinary Bladder Wall dose Total: 7.84E−02 mSv/MBq
Uterus ED Cont.: 7.13E−05 mSv/MBq
Uterus EDE Cont.: 8.55E−04 mSv/MBq
Uterus dose Alpha: 0.00E000 mSv/MBq
Uterus dose Beta: 3.12E−03 mSv/MBq
Uterus dose Photon: 1.11E−02 mSv/MBq
Uterus dose Total: 1.43E−02 mSv/MBq
